This is an account of results in patent publication US8323627B2, “Monoester of N-undecylenoyl phenylalanine and polyol, method for preparing same, and use of said esters as a skin lightening agent” (Societe d'Exploitation de Produits pour les Industries …, priority 2008, dated 2012).

For data set [1], the system named is B16/F1 melanocytes. The data set can be described thus: Inhibition of extracellular melanin production in B16/F1 melanocyte cultures. The data set is classed as cell-based, Mouse. As to conditions: for % Inhibition of extracellular melanin production relative to the control / Extracellular melanin (control: 98 μg ± 4 μg/ml): 72 hours incubation; for Depigmenting effect (summary in text of Table 1): B16/F1 melanocytes, doses of Table 1. The procedure: The influence of N-undecylenoyl phenylalanine monoglyceride, arbutin and N-undecylenoyl phenylalanine on the production of extracellular melanin, in B16/F1 melanocyte cultures, was compared.
Mouse melanocytes of the B16/F1 line cultured as monolayers are seeded in 96-well culture plates at a density of 1500 cells/well. The cells are cultured in a culture medium (MCM medium) at 37° C. under a humid atmosphere containing 5% CO2. The cells are used at 50% of confluence. The MCM medium has the following composition: DMEM medium (Dulbecco's Modified Eagle's Medium) containing 4.5 g/l of glucose supplemented with L-glutamine (2 mM), penicillin (50 IU/ml), streptomycin (50 μg/ml) and fetal calf serum (10% v/v). […] The melanocyte cultures are incubated in the presence of the test product or of the reference products for 72 hours at 37° C., under a humid atmosphere containing 5% CO2. Control cultures are incubated, in the absence of product, in the MCM medium. These control cultures are prepared on each culture plate. Each test is performed six times. After incubation for 72 hours, the incubation media of the cells (n=6) are taken up and stored at −80° C. until the time of evaluation of the effects. The extracellular melanin is quantified by spectrophotometry at 450 nm. A melanin calibration range is prepared in parallel. The results are expressed as μg/ml of extracellular melanin and as a percentage of inhibition relative to the control group in Table 1 below.

For data set [2], the system named is B16/F1 melanocytes. The data set can be described thus: Cytotoxic effect in B16/F1 melanocyte cultures (Bradford total protein). Format: cell-based, Mouse. As to conditions: for Cytotoxic effects (summary of Table 2): B16/F1 melanocytes, doses of Table 2; for % Decrease of the total amount of protein relative to the control / Evaluation (cytotoxicity): 72 hours incubation. The procedure:
Study of the Cytotoxic Effect of the Compound of Formula (I) in B16/F1 melanocyte Cultures
Evaluation of the presence of cytotoxic effects is performed using the Bradford technique by staining with Coomassie blue (Bradford M., “A rapid and sensitive method for the quantification of microgram quantities of protein utilizing the principle of protein-dye binding”, Anal. Biochem., 1976, 72, 248-254). The B16/F1 melanocytes are incubated after seeding with the dilutions of the test products. After 72 hours of incubation, the B16/F1 melanocytes are washed and then lyzed, and Bradford's reagent is then added. After incubation for 5 minutes at room temperature, a spectrophotometric reading is taken at 640 nm in parallel with an albumin calibration range. The cytotoxicity is proven for a decrease greater than or equal to 20% of the total amount of protein. The results are expressed as a percentage decrease of the total amount of protein, in Table 2 below.

Structures are written as SMILES.

With `OC[C@H]1O[C@@H](Oc2ccc(O)cc2)[C@H](O)[C@@H](O)[C@@H]1O` [Arbutin, reference compound], the “% Inhibition of extracellular melanin production relative to the control” value in the data set with B16/F1 melanocytes [1] (test product 40 μg/ml) was determined as 61%. The “Extracellular melanin (control: 98 μg ± 4 μg/ml)” value in the data set on B16/F1 melanocytes [1] (test product 40 μg/ml, n=6) came out at 39 ± 3 µg/mL.
With `C=CCCCCCCCCC(=O)NC(Cc1ccccc1)C(=O)OCC(O)CO` (stereo not shown) [Compound (A), N-undecylenoyl phenylalanine monoglyceride], the “Cytotoxic effects (summary of Table 2)” value with B16/F1 melanocytes [2] was “absence of cytotoxic effects”. In addition, the “% Decrease of the total amount of protein relative to the control” value in the data set with B16/F1 melanocytes [2] (test product 40 μg/ml) and in the data set with B16/F1 melanocytes [2] (test product 80 μg/ml) was “No observed decrease” throughout. In the data set on B16/F1 melanocytes [1], the “Depigmenting effect (summary in text of Table 1)” value was “depigmenting effect”. In addition, the figures for the “% Inhibition of extracellular melanin production relative to the control” value in the data set with B16/F1 melanocytes [1] (test product 40 μg/ml) and in the data set with B16/F1 melanocytes [1] (test product 80 μg/ml) were 15% and 58%, respectively. Moreover, the “Extracellular melanin (control: 98 μg ± 4 μg/ml)” value turned out to be 84 ± 8 µg/mL in the data set with B16/F1 melanocytes [1] (test product 40 μg/ml, n=6) and 42 ± 1 µg/mL with B16/F1 melanocytes [1] (test product 80 μg/ml).
`C=CCCCCCCCCC(=O)NC(Cc1ccccc1)C(=O)OCC(O)COCC(O)CO` (stereo not shown) [Compound (B), N-undecylenoyl phenylalanine diglyceryl ester]: the “Cytotoxic effects (summary of Table 2)” value in the data set with B16/F1 melanocytes [2] is “absence of cytotoxic effects”. Moreover, in the data set on B16/F1 melanocytes [2] (test product 60 μg/ml), the “% Decrease of the total amount of protein relative to the control” value is reported as “No observed decrease”. The “% Decrease of the total amount of protein relative to the control” value in the data set on B16/F1 melanocytes [2] (test product 80 μg/ml) is on record as “No observed decrease”. Besides, the “Depigmenting effect (summary in text of Table 1)” value in the data set on B16/F1 melanocytes [1] is on record as “depigmenting effect”. Moreover, in the data set on B16/F1 melanocytes [1] (test product 80 μg/ml), the “% Inhibition of extracellular melanin production relative to the control” value stood at 34% and the “Extracellular melanin (control: 98 μg ± 4 μg/ml)” value turned out to be 54 ± 3 µg/mL.
Regarding `C=CCCCCCCCCC(=O)N[C@@H](Cc1ccccc1)C(=O)O` [N-Undecylenoyl phenylalanine, N-undecylenoyl phenylalanine], in the data set with B16/F1 melanocytes [2], the “Cytotoxic effects (summary of Table 2)” value was “cytotoxic”. Further, the “% Decrease of the total amount of protein relative to the control” value is 32% with B16/F1 melanocytes [2] (test product 50 μg/ml) and 80% with B16/F1 melanocytes [2] (test product 80 μg/ml). The “Evaluation (cytotoxicity)” value in the data set with B16/F1 melanocytes [2] (test product 50 μg/ml) and in the data set with B16/F1 melanocytes [2] (test product 80 μg/ml) was “Cytotoxic (The cytotoxicity is proven for a decrease greater than or equal to 20% of the total amount of protein)” throughout. Further, the entries for the “% Inhibition of extracellular melanin production relative to the control” value in the data set with B16/F1 melanocytes [1] (test product 40 μg/ml) and in the data set with B16/F1 melanocytes [1] (test product 80 μg/ml) were 40% and “Cytotoxicity”, respectively. Further, the “Extracellular melanin (control: 98 μg ± 4 μg/ml)” value in the data set with B16/F1 melanocytes [1] (test product 40 μg/ml, n=6) was 59 ± 3 µg/mL; in the data set on B16/F1 melanocytes [1] (test product 80 μg/ml), “Cytotoxicity”.
